According to ChEMBL document CHEMBL5465560, “Selectivity Literature for EUbOPEN Chemogenomic Library” (2024):

What was measured:
[1] = biological target: Cyclin-dependent kinase 8 (Homo sapiens, UniProt P49336); conditions: at 10 µM
[2] = biological target: Ribosomal protein S6 kinase beta-1 (Homo sapiens, UniProt P23443); test: Selectivity interaction (KinomeScan (DiscoverX)) EUB0000666a RPS6KB1; conditions: at 10 µM
[3] = biological target: RAC-gamma serine/threonine-protein kinase (Homo sapiens, UniProt Q9Y243); test: Selectivity interaction (Kinase panel (Invitrogen)) EUB0000639a AKT3; conditions: at 200 nM
[4] = biological target: T1, Phosphatidylinositol 5-phosphate 4-kinase type-2 alpha (Homo sapiens) (UniProt P48426); test: Selectivity interaction (ActivX KiNativ screen (kinase selectivity in THP-1 cell lysates)) EUB0000639a PIP4K2A; format: subcellular; conditions: lysate
T1 sequence (whole entry): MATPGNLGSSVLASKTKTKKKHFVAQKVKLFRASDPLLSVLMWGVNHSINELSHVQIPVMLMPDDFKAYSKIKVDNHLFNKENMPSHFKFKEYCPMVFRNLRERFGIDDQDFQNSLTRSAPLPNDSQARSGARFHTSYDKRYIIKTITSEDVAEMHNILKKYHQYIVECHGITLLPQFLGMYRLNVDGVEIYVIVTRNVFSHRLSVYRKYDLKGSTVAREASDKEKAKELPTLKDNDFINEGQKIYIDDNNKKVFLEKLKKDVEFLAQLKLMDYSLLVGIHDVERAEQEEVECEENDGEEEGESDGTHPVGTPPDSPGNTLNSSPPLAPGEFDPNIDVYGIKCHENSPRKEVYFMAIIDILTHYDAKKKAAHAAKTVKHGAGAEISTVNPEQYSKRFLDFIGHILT

[5] = biological target: T2, Serine/threonine-protein kinase Nek9 (Homo sapiens) (UniProt Q8TD19); test: Selectivity interaction (ActivX KiNativ screen (kinase selectivity in THP-1 cell lysates)) EUB0000639a NEK9; format: subcellular; conditions: lysate, at 0.01 µM
T2 sequence (whole entry): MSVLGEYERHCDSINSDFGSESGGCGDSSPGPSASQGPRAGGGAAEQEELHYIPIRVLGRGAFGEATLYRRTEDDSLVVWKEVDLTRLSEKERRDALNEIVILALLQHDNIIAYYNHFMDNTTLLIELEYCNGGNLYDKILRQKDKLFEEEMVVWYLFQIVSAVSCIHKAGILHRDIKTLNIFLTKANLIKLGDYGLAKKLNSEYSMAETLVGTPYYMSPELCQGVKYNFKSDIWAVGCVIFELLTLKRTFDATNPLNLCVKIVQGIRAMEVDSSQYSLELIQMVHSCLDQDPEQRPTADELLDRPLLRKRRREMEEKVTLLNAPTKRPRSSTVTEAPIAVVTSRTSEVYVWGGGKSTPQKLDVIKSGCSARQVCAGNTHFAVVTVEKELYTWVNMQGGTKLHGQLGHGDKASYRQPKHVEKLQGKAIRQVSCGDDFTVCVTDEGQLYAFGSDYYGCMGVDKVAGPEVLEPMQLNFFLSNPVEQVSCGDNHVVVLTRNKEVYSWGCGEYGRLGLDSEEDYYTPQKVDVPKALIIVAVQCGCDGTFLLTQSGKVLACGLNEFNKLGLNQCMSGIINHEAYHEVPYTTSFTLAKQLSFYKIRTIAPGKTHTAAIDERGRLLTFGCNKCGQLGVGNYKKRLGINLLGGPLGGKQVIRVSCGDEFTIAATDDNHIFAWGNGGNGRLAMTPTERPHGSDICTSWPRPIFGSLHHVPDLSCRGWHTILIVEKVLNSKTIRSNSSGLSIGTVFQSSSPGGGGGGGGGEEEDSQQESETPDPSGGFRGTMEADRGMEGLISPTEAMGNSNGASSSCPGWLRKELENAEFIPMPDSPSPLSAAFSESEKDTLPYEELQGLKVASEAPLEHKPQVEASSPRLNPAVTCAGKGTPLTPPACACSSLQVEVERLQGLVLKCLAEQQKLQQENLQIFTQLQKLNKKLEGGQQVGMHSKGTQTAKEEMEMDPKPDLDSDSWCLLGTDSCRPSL

[6] = biological target: T3, Inhibitor of nuclear factor kappa-B kinase subunit alpha (Homo sapiens) (UniProt O15111); test: Selectivity interaction (KinomeScan (DiscoverX)) EUB0000607a CHUK; conditions: at 10 µM
T3 sequence (whole entry): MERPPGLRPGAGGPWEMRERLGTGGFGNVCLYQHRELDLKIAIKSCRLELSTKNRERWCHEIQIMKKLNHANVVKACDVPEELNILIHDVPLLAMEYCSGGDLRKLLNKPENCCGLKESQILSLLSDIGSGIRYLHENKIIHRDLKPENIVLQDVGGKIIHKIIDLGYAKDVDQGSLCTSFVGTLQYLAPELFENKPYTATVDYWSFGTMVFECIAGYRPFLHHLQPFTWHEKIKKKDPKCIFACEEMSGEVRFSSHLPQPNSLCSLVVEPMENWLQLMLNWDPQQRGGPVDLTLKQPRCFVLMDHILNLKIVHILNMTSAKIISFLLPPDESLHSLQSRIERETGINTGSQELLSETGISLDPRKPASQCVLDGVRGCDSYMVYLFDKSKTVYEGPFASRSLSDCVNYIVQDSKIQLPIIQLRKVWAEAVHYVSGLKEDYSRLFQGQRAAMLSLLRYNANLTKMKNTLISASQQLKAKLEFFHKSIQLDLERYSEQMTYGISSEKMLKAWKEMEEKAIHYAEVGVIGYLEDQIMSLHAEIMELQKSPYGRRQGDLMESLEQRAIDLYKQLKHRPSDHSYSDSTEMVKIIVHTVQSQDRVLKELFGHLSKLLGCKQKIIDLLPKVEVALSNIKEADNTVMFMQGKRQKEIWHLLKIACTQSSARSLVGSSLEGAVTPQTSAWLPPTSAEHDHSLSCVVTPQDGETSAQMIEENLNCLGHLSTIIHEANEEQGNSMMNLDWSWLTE

[7] = biological target: Serine/threonine-protein kinase 38 (Homo sapiens) (UniProt Q15208); test: Selectivity interaction (KinomeScan (DiscoverX)) EUB0000045b STK38
[8] = tested on: Epidermal growth factor receptor (Homo sapiens), P00533 [G719S]; test: (§1) Selectivity interaction (KinomeScan (DiscoverX)) EUB0000045b EGFR
[9] = biological target: Epidermal growth factor receptor (Homo sapiens, UniProt P00533); test: as §1
[10] = tested on: Epidermal growth factor receptor (Homo sapiens), P00533 [L861Q]; test: as §1
[11] = tested on: Epidermal growth factor receptor (Homo sapiens), P00533 [T790M]; test: as §1
[12] = tested on: Epidermal growth factor receptor (Homo sapiens), P00533 [L858R]; test: as §1
[13] = biological target: Phosphatidylinositol 4,5-bisphosphate 3-kinase catalytic subunit gamma isoform (Homo sapiens) (UniProt P48736); test: Selectivity interaction (KinomeScan (DiscoverX)) EUB0000618a PIK3CG; conditions: at 10 µM

Sequence of Serine/threonine-protein kinase 38 (Homo sapiens) (Q15208 2-465 limits assumed): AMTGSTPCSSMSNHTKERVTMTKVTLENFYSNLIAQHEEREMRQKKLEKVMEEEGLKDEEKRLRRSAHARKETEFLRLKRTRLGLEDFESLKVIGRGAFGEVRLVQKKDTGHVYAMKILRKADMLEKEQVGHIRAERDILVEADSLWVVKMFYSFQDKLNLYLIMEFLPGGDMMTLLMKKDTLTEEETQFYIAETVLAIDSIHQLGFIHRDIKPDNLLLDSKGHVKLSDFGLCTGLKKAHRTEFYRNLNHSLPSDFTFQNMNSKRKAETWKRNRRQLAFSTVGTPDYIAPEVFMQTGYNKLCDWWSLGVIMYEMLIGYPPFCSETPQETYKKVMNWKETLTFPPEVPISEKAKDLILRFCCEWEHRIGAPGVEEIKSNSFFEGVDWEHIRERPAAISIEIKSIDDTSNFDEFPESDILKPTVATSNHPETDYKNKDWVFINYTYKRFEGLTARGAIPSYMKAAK
Sequence of Epidermal growth factor receptor (Homo sapiens), P00533 [T790M] (P00533 whole entry T790M): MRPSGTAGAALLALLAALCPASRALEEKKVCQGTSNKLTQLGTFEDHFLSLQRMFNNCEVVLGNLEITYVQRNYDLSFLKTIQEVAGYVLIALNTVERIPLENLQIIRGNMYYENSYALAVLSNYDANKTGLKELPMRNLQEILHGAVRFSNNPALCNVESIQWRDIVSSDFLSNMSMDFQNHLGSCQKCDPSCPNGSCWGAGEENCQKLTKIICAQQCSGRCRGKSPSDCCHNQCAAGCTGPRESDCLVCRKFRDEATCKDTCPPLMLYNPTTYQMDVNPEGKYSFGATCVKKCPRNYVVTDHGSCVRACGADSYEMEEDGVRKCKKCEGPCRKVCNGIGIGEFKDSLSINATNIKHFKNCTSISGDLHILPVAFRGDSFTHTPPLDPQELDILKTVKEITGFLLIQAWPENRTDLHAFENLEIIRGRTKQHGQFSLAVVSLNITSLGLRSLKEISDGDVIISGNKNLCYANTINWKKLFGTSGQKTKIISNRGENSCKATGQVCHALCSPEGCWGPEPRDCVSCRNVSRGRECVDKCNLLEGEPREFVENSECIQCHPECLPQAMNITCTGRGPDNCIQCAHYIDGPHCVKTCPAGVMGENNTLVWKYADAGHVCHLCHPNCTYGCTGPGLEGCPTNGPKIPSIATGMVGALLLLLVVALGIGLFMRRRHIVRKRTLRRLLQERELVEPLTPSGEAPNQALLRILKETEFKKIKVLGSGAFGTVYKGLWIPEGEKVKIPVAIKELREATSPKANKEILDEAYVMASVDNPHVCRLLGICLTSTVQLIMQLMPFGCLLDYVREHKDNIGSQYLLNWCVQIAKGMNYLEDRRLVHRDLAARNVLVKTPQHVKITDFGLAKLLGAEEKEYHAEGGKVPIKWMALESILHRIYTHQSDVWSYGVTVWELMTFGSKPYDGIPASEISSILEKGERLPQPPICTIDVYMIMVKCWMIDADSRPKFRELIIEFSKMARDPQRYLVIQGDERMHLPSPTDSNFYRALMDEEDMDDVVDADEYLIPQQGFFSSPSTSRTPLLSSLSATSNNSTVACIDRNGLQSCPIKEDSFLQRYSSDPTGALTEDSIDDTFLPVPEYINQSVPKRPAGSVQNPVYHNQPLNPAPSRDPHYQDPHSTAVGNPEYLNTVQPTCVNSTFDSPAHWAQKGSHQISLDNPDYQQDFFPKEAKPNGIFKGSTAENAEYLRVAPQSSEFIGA
Sequence of Epidermal growth factor receptor (Homo sapiens), P00533 [L861Q] (P00533 whole entry L861Q): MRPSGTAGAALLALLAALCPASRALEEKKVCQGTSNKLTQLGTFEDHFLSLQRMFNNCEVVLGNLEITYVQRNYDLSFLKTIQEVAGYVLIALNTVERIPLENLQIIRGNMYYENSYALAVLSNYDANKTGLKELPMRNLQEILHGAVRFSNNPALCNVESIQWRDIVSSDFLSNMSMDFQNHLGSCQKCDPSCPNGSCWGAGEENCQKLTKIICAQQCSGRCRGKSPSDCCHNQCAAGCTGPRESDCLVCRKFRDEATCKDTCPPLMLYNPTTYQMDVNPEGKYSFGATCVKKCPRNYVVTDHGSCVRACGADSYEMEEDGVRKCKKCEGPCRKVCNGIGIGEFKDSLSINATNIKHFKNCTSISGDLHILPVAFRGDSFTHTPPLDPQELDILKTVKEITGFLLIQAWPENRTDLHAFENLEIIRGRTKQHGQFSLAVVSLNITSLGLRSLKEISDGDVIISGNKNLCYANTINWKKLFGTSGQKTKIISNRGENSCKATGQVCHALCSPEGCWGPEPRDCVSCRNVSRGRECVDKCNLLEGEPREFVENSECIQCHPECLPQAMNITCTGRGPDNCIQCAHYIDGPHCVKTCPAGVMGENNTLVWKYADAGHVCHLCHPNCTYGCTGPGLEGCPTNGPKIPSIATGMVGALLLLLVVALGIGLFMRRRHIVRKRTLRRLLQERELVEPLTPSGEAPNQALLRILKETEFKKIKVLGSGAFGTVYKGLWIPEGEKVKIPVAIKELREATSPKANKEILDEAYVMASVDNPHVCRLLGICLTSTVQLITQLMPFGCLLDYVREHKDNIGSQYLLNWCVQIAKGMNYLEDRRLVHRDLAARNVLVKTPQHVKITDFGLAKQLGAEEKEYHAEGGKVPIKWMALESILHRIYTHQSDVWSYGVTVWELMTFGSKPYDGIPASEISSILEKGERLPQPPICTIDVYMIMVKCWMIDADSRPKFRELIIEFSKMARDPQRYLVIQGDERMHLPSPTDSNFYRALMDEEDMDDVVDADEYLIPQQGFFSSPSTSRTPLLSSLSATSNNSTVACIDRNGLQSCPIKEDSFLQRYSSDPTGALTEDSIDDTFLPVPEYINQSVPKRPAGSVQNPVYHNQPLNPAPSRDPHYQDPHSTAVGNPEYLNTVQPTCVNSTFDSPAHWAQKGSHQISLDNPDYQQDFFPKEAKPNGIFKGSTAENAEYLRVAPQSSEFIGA
Sequence of Epidermal growth factor receptor (Homo sapiens), P00533 [G719S] (P00533 whole entry G719S): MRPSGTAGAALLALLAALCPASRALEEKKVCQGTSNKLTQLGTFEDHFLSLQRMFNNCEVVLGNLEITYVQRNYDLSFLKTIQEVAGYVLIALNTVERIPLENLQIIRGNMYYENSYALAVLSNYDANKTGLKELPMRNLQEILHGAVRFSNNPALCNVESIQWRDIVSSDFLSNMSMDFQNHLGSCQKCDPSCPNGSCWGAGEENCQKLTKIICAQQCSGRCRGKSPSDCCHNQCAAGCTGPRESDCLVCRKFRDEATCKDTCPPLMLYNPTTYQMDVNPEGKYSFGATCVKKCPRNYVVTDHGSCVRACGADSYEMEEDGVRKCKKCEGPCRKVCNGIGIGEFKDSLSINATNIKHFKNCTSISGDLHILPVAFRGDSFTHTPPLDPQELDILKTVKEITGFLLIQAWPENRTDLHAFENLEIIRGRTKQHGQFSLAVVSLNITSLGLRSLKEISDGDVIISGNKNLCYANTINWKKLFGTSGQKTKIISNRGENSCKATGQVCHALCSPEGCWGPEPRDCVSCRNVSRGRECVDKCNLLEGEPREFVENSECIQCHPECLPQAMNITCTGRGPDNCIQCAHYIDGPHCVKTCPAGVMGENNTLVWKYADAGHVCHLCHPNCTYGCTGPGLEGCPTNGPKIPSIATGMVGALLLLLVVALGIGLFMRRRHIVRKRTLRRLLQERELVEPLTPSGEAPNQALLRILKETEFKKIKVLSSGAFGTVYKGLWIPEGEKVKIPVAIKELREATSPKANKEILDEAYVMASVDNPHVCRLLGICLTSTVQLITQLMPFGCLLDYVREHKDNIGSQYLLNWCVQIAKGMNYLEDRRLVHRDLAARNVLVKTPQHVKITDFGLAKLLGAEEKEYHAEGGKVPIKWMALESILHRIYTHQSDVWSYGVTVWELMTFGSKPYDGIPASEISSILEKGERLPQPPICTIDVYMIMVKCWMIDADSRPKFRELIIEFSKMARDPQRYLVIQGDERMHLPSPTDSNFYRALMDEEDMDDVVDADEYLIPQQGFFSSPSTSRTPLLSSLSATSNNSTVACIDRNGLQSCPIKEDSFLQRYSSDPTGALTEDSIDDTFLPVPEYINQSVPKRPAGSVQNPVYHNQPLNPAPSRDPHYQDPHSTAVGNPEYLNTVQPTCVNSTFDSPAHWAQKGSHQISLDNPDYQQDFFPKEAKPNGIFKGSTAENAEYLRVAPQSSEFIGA
Sequence of Cyclin-dependent kinase 8 (P49336 whole entry): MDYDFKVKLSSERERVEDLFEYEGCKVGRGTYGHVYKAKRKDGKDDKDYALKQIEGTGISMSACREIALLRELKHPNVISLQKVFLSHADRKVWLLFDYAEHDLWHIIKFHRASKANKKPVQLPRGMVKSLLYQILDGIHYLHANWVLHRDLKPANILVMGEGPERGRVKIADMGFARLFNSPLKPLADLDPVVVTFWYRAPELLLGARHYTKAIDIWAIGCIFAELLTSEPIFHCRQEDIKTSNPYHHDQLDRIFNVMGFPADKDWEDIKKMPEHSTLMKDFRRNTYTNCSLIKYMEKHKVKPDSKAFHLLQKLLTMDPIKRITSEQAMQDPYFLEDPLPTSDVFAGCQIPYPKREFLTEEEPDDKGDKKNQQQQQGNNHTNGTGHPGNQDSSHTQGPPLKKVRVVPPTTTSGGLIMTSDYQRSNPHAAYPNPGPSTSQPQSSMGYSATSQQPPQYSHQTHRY
Sequence of Ribosomal protein S6 kinase beta-1 (P23443 whole entry, looked up): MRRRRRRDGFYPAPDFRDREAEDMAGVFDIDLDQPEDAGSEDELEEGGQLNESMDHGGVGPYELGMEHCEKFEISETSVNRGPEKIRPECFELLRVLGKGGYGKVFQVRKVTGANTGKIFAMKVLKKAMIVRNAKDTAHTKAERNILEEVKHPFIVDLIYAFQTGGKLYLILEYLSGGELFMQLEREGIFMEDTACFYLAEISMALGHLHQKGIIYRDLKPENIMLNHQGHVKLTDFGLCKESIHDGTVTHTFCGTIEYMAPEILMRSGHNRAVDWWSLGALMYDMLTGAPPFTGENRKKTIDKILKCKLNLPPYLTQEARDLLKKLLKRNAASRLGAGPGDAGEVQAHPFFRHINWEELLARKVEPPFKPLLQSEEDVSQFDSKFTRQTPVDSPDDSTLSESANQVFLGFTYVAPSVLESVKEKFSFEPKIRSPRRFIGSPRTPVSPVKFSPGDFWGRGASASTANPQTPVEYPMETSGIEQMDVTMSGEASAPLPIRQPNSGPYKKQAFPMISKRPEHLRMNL

CCN(CC)CCCCNc1ncc2cc(-c3cc(OC)cc(OC)c3)c(NC(=O)NC(C)(C)C)nc2n1
% of control [1]: 100%

O=C(NOC[C@H](O)CO)c1ccc(F)c(F)c1Nc1ccc(I)cc1F
% of control [2]: 100%

CC[C@@H]1[C@H](F)C(=O)N[C@@H]1COc1nccc2cc(C(N)=O)c(OC)cc12 [ZIMLOVISERTIB]
% of inhibition [3]: 1.08%
% of inhibition ([4]; at 0.01 µM): -3.1%
% of inhibition ([4]; at 0.04 µM): 1.9%
% of inhibition ([4]; at 0.2 µM): -7.7%
% of inhibition ([4]; at 1 µM): -0.6%
% of inhibition ([4]; at 5 µM): -9%
% of inhibition [5]: 1.1%

CNC(=O)Nc1ccc(-c2nc(N3CC4CCC(C3)O4)c3cnn(C4CCC5(CC4)OCCO5)c3n2)cc1
% of control [6]: 100%

C=CC(=O)Nc1cc(-n2c(=O)ccc3cnc4ccc(-c5ccc(NS(C)(=O)=O)cc5)cc4c32)ccc1C
% of control ([7]; at 1 µM): 100%
% of control ([7]; at 10 µM): 100%
% of control ([8]; at 1 µM): 90%
% of control ([8]; at 10 µM): 85%
% of control ([9]; at 1 µM): 82%
% of control ([9]; at 10 µM): 25%
% of control ([10]; at 1 µM): 40%
% of control ([10]; at 10 µM): 45%
% of control ([11]; at 1 µM): 11%
% of control ([11]; at 10 µM): 2.1%
% of control ([12]; at 1 µM): 95%
% of control ([12]; at 10 µM): 50%

O[C@H]1CC[C@H](Nc2ncc3nc(Nc4c(F)cc(F)cc4F)n([C@H]4CCOC4)c3n2)CC1
% of control [13]: 100%
